Results as given in patent US20250197358A1, “PESTICIDALLY ACTIVE THIOSEMICARBAZONE COMPOUNDS” (BASF SE, priority 2022, published 2025).

Tests used:
Experiment in all cases: whole plant or invertebrate
Format in all cases: in vivo
[1] = tested on: yellow fever mosquito (Aedes aegypti); details: 48 h, larval mortality after 2 days, read-out: mortality in comparison with untreated controls
Description: Example B1: Action on Yellow Fever Mosquito (Aedes aegypti)
For evaluating control of yellow fever mosquito (Aedes aegypti) the test unit consisted of 96-well-microtiter plates containing 200 μl of tap water per well and 5-15 freshly hatched A. aegypti larvae.
The active compounds or mixtures were formulated using a solution containing 75% (v/v) water and 25% (v/v) DMSO. Different concentrations of formulated compounds or mixtures were sprayed onto the insect diet at 2.5 μl, using a custom built micro atomizer, at two replications. For experimental mixtures in these tests identical volumes of both mixing partners at the desired concentrations respectively, were mixed together.
After application, microtiter plates were incubated at 28±1° C., 80±5% RH for 2 days. Larval mortality was then visually assessed.

[2] = tested on: tobacco budworm (Heliothis virescens); details: 120 h, egg and larval mortality after 5 days, read-out: mortality in comparison with untreated controls
Description: For evaluating control of tobacco budworm (Heliothis virescens) the test unit consisted of 96-well-microtiter plates containing an insect diet and 15-25 H. virescens eggs.
Different concentrations of formulated compounds were sprayed onto the insect diet at 10 μl, using a custom-built micro atomizer, at two replications.
After application, microtiter plates were incubated at about 28+1° C. and about 80+5% relative humidity for 5 days. Egg and larval mortality were then visually assessed.

[3] = tested on: diamond back moth (Plutella xylostella); details: in Brassica oleracea, foliar, 3rd instar larvae, 72 hours after treatment, read-out: mortality in comparison with untreated controls
Description: Surfactant (Kinetic® HV) is added at a rate of 0.01% (v/v). The test solution is prepared at the day of use.
Leaves of cabbage were dipped in test solution and air-dried. Treated leaves were placed in petri dishes lined with moist filter paper and inoculated with ten 3rd instar larvae. Mortality was recorded 72 hours after treatment. Feeding damages were also recorded using a scale of 0-100%.

[4] = tested on: southern armyworm (Spodoptera eridania); details: in Phaseolus lunatus, 96 h, 2nd instar larvae, 4 days after treatment, read-out: mortality in comparison with untreated controls
Description: The 10,000 ppm solution was serially diluted in 100% cyclohexanone to make interim solutions. These served as stock solutions for which final dilutions were made by the Tecan in 50% acetone:50% water (v/v) into 10 or 20 ml glass vials. A nonionic surfactant (Kinetic®) was included in the solution at a volume of 0.01% (v/v). The vials were then inserted into an automated electrostatic sprayer equipped with an atomizing nozzle for application to plants/insects.
Lima bean plants (variety Sieva) were grown 2 plants to a pot and selected for treatment at the 1st true leaf stage. Test solutions were sprayed onto the foliage by an automated electrostatic plant sprayer equipped with an atomizing spray nozzle. The plants were dried in the sprayer fume hood and then removed from the sprayer. Each pot was placed into perforated plastic bags with a zip closure. About 10 to 11 armyworm larvae were placed into the bag and the bags zipped closed. Test plants were maintained in a growth room at about 25° C. and about 20-40% relative humidity for 4 days, avoiding direct exposure to fluorescent light (24 hour photoperiod) to prevent trapping of heat inside the bags. Mortality and reduced feeding were assessed 4 days after treatment, compared to untreated control plants.

[5] = tested on: boll weevil (Anthonomus grandis); details: 120 h, egg and larval mortality after 5 days, read-out: mortality in comparison with untreated controls
[6] = tested on: orchid thrips (Dichromothrips corbetti); details: adult thrips, 72 hours after treatment, read-out: mortality in comparison with untreated controls
Description: Dichromothrips corbetti adults used for bioassay were obtained from a colony maintained continuously under laboratory conditions. For testing purposes, the test compound is diluted in a 1:1 mixture of acetone:water (vol:vol), plus Kinetic® HV at a rate of 0.01% v/v.
Thrips potency of each compound was evaluated by using a floral-immersion technique. All petals of individual, intact orchid flowers were dipped into treatment solution and allowed to dry in Petri dishes. Treated petals were placed into individual re-sealable plastic along with about 20 adult thrips. All test arenas were held under continuous light and a temperature of about 28° C. for duration of the assay. After 3 days, the numbers of live thrips were counted on each petal. The percent mortality was recorded 72 hours after treatment.

| Structure (SMILES) | mortality at 800 ppm [1] [%] | mortality at 800 ppm [2] [%] | mortality at 500 ppm [3] [%] | mortality at 300 ppm [4] [%] | mortality at 800 ppm [5] [%] | mortality at 500 ppm [6] [%] |
| --- | --- | --- | --- | --- | --- | --- |
| CC(=O)OCS/C(=N\N=C\c1ccc(-c2nn(C)c(NC(=O)c3ccc(OC(F)(F)F)cc3)c2C#N)cc1)Nc1cc(C)ccc1C(C)C [Compound C-7, [(Z)—N′-[(E)-[4-[4-cyano-1-methyl-5-[[4-(trifluoromethoxy)benzoyl]amino]pyrazol-3-yl]phenyl]methyleneamino]-N-(2-isopropyl-5-methylphenyl)carbamimidoyl]sulfanylmethyl acetate] | ≥ 50 | ≥ 75 | ≥ 75 | ≥ 75 | ≥ 75 | ≥ 75 |
| Cc1ccc(C(C)C)c(N/C(=N/N=C/c2ccc(-c3nn(C)c(NC(=O)c4ccc(OC(F)(F)F)cc4)c3C#N)cc2)SCOC(=O)C(C)C)c1 [Compound C-8, [(Z)—N′-[(E)-[4-[4-cyano-1-methyl-5-[[4-(trifluoromethoxy)benzoyl]amino]pyrazol-3-yl]phenyl]methyleneamino]-N-(2-isopropyl-5-methylphenyl)carbamimidoyl]sulfanylmethyl 2-methylpropanoate] | ≥ 50 | ≥ 75 | ≥ 75 | ≥ 75 | ≥ 75 | ≥ 75 |
